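Interpolation was linear, between the two tested concentrations surrounding the appropriate level; five concentrations were tested over 48 hours in 96-well plates. Abbreviation: GI50, concentration required for 50% inhibition of growth. TGI: concentration producing complete growth inhibition.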
How the values were obtained:
Assay in all cases: NCI anticancer screen, dose series, 48 h
786-0 renal = test system: 786-0 renal
A498 renal = test system: A498 renal
A549 NSCLC = test system: A549 NSCLC
ACHN renal = test system: ACHN renal
BT-549 breast = test system: BT-549 breast
CAKI-1 renal = test system: CAKI-1 renal
CCRF-CEM leukemia = test system: CCRF-CEM leukemia
COLO 205 colon = test system: COLO 205 colon
DU-145 prostate = test system: DU-145 prostate
EKVX NSCLC = test system: EKVX NSCLC
HCC-2998 colon = test system: HCC-2998 colon
HCT-116 colon = test system: HCT-116 colon
HCT-15 colon = test system: HCT-15 colon
HL-60(TB) leukemia = test system: HL-60(TB) leukemia
HOP-62 NSCLC = test system: HOP-62 NSCLC
HOP-92 NSCLC = test system: HOP-92 NSCLC
HS 578T breast = test system: HS 578T breast
HT29 colon = test system: HT29 colon
IGROV1 ovarian = test system: IGROV1 ovarian
K-562 leukemia = test system: K-562 leukemia
KM12 colon = test system: KM12 colon
LOX IMVI melanoma = test system: LOX IMVI melanoma
M14 melanoma = test system: M14 melanoma
MALME-3M melanoma = test system: MALME-3M melanoma
MCF7 breast = test system: MCF7 breast
MDA-MB-231 breast = test system: MDA-MB-231 breast
MDA-MB-435 = test system: MDA-MB-435
NCI-H226 lung = test system: NCI-H226 lung
NCI-H23 lung = test system: NCI-H23 lung
NCI-H460 lung = test system: NCI-H460 lung
NCI-H522 lung = test system: NCI-H522 lung
NCI/ADR-RES ovarian = test system: NCI/ADR-RES ovarian
OVCAR-3 ovarian = test system: OVCAR-3 ovarian
OVCAR-4 ovarian = test system: OVCAR-4 ovarian
OVCAR-5 ovarian = test system: OVCAR-5 ovarian
OVCAR-8 ovarian = test system: OVCAR-8 ovarian
PC-3 prostate = test system: PC-3 prostate
RPMI-8226 leukemia = test system: RPMI-8226 leukemia
RXF 393 renal = test system: RXF 393 renal
SF-268 CNS = test system: SF-268 CNS
SF-295 CNS = test system: SF-295 CNS
SF-539 CNS = test system: SF-539 CNS
SK-MEL-2 melanoma = test system: SK-MEL-2 melanoma
SK-MEL-28 melanoma = test system: SK-MEL-28 melanoma
SK-MEL-5 melanoma = test system: SK-MEL-5 melanoma
SN12C renal = test system: SN12C renal
SNB-19 CNS = test system: SNB-19 CNS
SNB-75 CNS = test system: SNB-75 CNS
SR leukemia = test system: SR leukemia
SW-620 colon = test system: SW-620 colon
T-47D breast = test system: T-47D breast
TK-10 renal = test system: TK-10 renal
U251 CNS = test system: U251 CNS
UACC-257 melanoma = test system: UACC-257 melanoma
UACC-62 melanoma = test system: UACC-62 melanoma
UO-31 renal = test system: UO-31 renal

CCc1ccc2c(c1)C(=O)c1c-2n(CCCBr)c(=O)c2cc([N+](=O)[O-])ccc12
GI50 (786-0 renal): 23.4 µM
TGI (786-0 renal): > 50 µM
GI50 (A498 renal): > 50 µM
TGI (A498 renal): > 50 µM
GI50 (A549 NSCLC): > 50 µM
TGI (A549 NSCLC): > 50 µM
GI50 (ACHN renal): > 50 µM
TGI (ACHN renal): > 50 µM
GI50 (BT-549 breast): > 50 µM
TGI (BT-549 breast): > 50 µM
GI50 (CAKI-1 renal): > 50 µM
TGI (CAKI-1 renal): > 50 µM
GI50 (CCRF-CEM leukemia): > 50 µM
TGI (CCRF-CEM leukemia): > 50 µM
GI50 (COLO 205 colon): > 50 µM
TGI (COLO 205 colon): > 50 µM
GI50 (DU-145 prostate): > 50 µM
TGI (DU-145 prostate): > 50 µM
GI50 (EKVX NSCLC): > 50 µM
TGI (EKVX NSCLC): > 50 µM
GI50 (HCC-2998 colon): > 50 µM
TGI (HCC-2998 colon): > 50 µM
GI50 (HCT-116 colon): > 50 µM
TGI (HCT-116 colon): > 50 µM
GI50 (HCT-15 colon): > 50 µM
TGI (HCT-15 colon): > 50 µM
GI50 (HL-60(TB) leukemia): > 50 µM
TGI (HL-60(TB) leukemia): > 50 µM
GI50 (HOP-62 NSCLC): 21.3 µM
TGI (HOP-62 NSCLC): > 50 µM
GI50 (HOP-92 NSCLC): 16 µM
TGI (HOP-92 NSCLC): > 50 µM
GI50 (HS 578T breast): 18.2 µM
TGI (HS 578T breast): > 50 µM
GI50 (HT29 colon): > 50 µM
TGI (HT29 colon): > 50 µM
GI50 (IGROV1 ovarian): 27.9 µM
TGI (IGROV1 ovarian): > 50 µM
GI50 (K-562 leukemia): > 50 µM
TGI (K-562 leukemia): > 50 µM
GI50 (KM12 colon): > 50 µM
TGI (KM12 colon): > 50 µM
GI50 (LOX IMVI melanoma): > 50 µM
TGI (LOX IMVI melanoma): > 50 µM
GI50 (M14 melanoma): > 50 µM
TGI (M14 melanoma): > 50 µM
GI50 (MALME-3M melanoma): 18.5 µM
TGI (MALME-3M melanoma): > 50 µM
GI50 (MCF7 breast): 19.9 µM
TGI (MCF7 breast): > 50 µM
GI50 (MDA-MB-231 breast): 45.7 µM
TGI (MDA-MB-231 breast): > 50 µM
GI50 (MDA-MB-435): > 50 µM
TGI (MDA-MB-435): > 50 µM
GI50 (NCI-H226 lung): 27.7 µM
TGI (NCI-H226 lung): > 50 µM
GI50 (NCI-H23 lung): > 50 µM
TGI (NCI-H23 lung): > 50 µM
GI50 (NCI-H460 lung): > 50 µM
TGI (NCI-H460 lung): > 50 µM
GI50 (NCI-H522 lung): 45.9 µM
TGI (NCI-H522 lung): > 50 µM
GI50 (NCI/ADR-RES ovarian): > 50 µM
TGI (NCI/ADR-RES ovarian): > 50 µM
GI50 (OVCAR-3 ovarian): > 50 µM
TGI (OVCAR-3 ovarian): > 50 µM
GI50 (OVCAR-4 ovarian): 48.1 µM
TGI (OVCAR-4 ovarian): > 50 µM
GI50 (OVCAR-5 ovarian): > 50 µM
TGI (OVCAR-5 ovarian): > 50 µM
GI50 (OVCAR-8 ovarian): > 50 µM
TGI (OVCAR-8 ovarian): > 50 µM
GI50 (PC-3 prostate): > 50 µM
TGI (PC-3 prostate): > 50 µM
GI50 (RPMI-8226 leukemia): > 50 µM
TGI (RPMI-8226 leukemia): > 50 µM
GI50 (RXF 393 renal): 21.8 µM
TGI (RXF 393 renal): > 50 µM
GI50 (SF-268 CNS): 15.9 µM
TGI (SF-268 CNS): > 50 µM
GI50 (SF-295 CNS): 36.5 µM
TGI (SF-295 CNS): > 50 µM
GI50 (SF-539 CNS): 28.4 µM
TGI (SF-539 CNS): > 50 µM
GI50 (SK-MEL-2 melanoma): 31.9 µM
TGI (SK-MEL-2 melanoma): > 50 µM
GI50 (SK-MEL-28 melanoma): > 50 µM
TGI (SK-MEL-28 melanoma): > 50 µM
GI50 (SK-MEL-5 melanoma): > 50 µM
TGI (SK-MEL-5 melanoma): > 50 µM
GI50 (SN12C renal): > 50 µM
TGI (SN12C renal): > 50 µM
GI50 (SNB-19 CNS): 30.8 µM
TGI (SNB-19 CNS): > 50 µM
GI50 (SNB-75 CNS): 7.88 µM
TGI (SNB-75 CNS): 19.9 µM
GI50 (SR leukemia): 19.1 µM
TGI (SR leukemia): > 50 µM
GI50 (SW-620 colon): > 50 µM
TGI (SW-620 colon): > 50 µM
GI50 (T-47D breast): > 50 µM
TGI (T-47D breast): > 50 µM
GI50 (TK-10 renal): 15 µM
TGI (TK-10 renal): > 50 µM
GI50 (U251 CNS): 26 µM
TGI (U251 CNS): > 50 µM
GI50 (UACC-257 melanoma): > 50 µM
TGI (UACC-257 melanoma): > 50 µM
GI50 (UACC-62 melanoma): 32.2 µM
TGI (UACC-62 melanoma): > 50 µM
GI50 (UO-31 renal): > 50 µM
TGI (UO-31 renal): > 50 µM
